Source: patent US4087461A, “Anti-androgenic steroids” (The Johns Hopkins University, priority 1977, dated 1978)
pKi: −log10 of the molar value. Entries after “also recorded” stand apart in the source; their conditions may differ.

Legend:
[1] = target: T1, Δ^5 -3-ketosteroid isomerase (EC 5.3.3.1) (Comamonas testosteroni, UniProt P00947); experiment: irreversible inactivation of crystalline purified bacterial Δ^5-3-ketosteroid isomerase by acetylenic steroids (Kitz and Wilson kinetic analysis); type: biochemical, Pseudomonas testosteroni
T1 sequence (P00947 whole entry, stated change not applied): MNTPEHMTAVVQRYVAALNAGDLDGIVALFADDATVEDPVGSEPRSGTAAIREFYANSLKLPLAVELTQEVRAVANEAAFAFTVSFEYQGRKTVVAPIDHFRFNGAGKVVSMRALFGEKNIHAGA
Experimental: The inactivation is progressive with time, and half-lives in the range of 150-1320 sec are observed at concentrations of 20-200 μM of the two inhibitors. The enzymatic activities of control vessels which received only equivalent volumes of 1,4-dioxane remained constant at initial activities.
The initial rates of inactivation of the isomerase by (1) and (2) can be analyzed by the method of Kitz and Wilson^8 since very satisfactory pseudo-first-order behavior was observed. It is assumed that [I] (inhibitor) >> [E] (enzyme), that [E.I] (the reversible enzyme-inhibitorcomplex) is at all times in equilibrium with enzyme and inhibitor, and that ^k cat >> ^k inh. The scheme for the formation of EI' (the irreversible enzyme-inhibitor derivative) may then be represented as follows.
If the enzyme-inhibitor solution is diluted extensively prior to assay, the active enzyme (ε) = [E] + [E.I]. Then -d(ε)/dt = k3 [E.I.], and K1 = ([E][I])/[EI]. Thus [formula] where Et = total amount of enzyme in system.
If one defines [formula] Consequently double reciprocal plots of kapp with respect to [I] should be linear, with slopes and intercepts permitting the determination of K1 and k3 where the latter is the overall rate constant for the irreversible inhibition process.
From plots of 1n ε (residual enzymatic activity) vs. time, kapp has been determined at five inhibitor concentrations for both compounds 1 and 2, i.e. estryne and pregnyne. Strict linearity of the semilogarithmic plots has been observed in all cases, over greater than two half-lives. A plot of 1/kapp vs. 1/[I] was linear and gave k3 and K1 (FIG. 1). For compound 1, K1 = 56 μM and k3 = 1.98 × 10^-3 sec^-1, and for compound 2, K1 = 32 μM and k3 = 4.10 × 10^-3 sec^-1.
Studies were performed using crystalline purified bacterial Δ^5 -3-ketosteroid isomerase (from P. testosteroni), under pseudo first order conditions using the kinetic analysis of R. Kitz and I. B. Wilson [J. Biol. Chem., 237, 3245 (1964)].

[2] = target: T1, Δ^5 -3-ketosteroid isomerase (EC 5.3.3.1); experiment: as above; type: biochemical, Pseudomonas testosteroni; conditions: 24 hr at 4° vs. 1 mM potassium phosphate buffer, pH 7.0
[3] = target: T2, cytosol androgen receptor (prostate androgen binding protein) (Rattus norvegicus, UniProt P15207); experiment: inhibition of nuclear uptake of ^3H-dihydrotestosterone in ventral prostate minces (binding to the prostatic androgen receptor)
T2 construct: freshly minced ventral prostate tissue obtained from rats castrated 24 hours before sacrifice; from tissue; host or cells: ventral prostate minces of castrated rats
T2 sequence (P15207 1-902): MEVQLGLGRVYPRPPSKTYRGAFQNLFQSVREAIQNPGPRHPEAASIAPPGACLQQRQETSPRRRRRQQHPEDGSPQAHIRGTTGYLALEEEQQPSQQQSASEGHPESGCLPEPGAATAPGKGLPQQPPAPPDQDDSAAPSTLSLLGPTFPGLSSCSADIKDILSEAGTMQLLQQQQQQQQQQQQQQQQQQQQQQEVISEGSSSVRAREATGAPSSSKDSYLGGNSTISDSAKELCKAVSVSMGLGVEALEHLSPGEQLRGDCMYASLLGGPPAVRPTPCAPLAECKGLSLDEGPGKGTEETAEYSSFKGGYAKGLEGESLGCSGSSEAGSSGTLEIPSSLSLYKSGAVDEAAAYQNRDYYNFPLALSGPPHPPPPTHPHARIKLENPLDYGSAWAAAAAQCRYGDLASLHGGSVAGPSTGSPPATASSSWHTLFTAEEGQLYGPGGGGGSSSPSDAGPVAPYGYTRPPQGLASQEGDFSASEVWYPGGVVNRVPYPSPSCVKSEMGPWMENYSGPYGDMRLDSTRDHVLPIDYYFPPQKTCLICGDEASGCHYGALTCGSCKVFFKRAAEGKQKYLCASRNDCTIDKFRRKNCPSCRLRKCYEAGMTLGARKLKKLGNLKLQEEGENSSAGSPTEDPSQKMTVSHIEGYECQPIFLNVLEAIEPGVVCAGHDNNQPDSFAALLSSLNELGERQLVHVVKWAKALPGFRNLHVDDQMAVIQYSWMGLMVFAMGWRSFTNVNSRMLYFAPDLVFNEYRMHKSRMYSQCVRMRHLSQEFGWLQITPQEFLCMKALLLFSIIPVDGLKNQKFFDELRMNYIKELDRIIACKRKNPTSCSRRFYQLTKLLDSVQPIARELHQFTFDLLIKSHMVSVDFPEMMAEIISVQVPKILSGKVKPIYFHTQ
Experimental: The binding to the cytosol androgen receptor was determined by the procedure of Fang (5) with modification. […] The amount of radioactivity in the nuclei is expressed as observed counts per minute per 100 μg DNA.

[4] = test system: endogenous androgen biosynthesis; experiment: study in intact male rats: weights of sex accessory tissue and other organs; type: in vivo, male Sprague-Dawley rats; conditions: 7 days; for Adrenal weight (± Sem): intact control 27 ± 2; for Dorsal Lateral Prostate weight (± Sem): intact control 244 ± 12; for Seminal Vesicles weight (± Sem): intact control 394 ± 12; for Ventral Prostate weight (± Sem): intact control 421 ± 15; for Kidney weight (± Sem): intact control 1260 ± 63; for Testis weight (± Sem): intact control 1650 ± 38
Experimental: Studies with intact male Sprague-Dawley rats (300g body weight) are illustrated for compounds (1) and (2).
Similarly, compound (2), […] rats at a dosage of 20mg per kilo for 7 days produced 20% reduction in weight of the ventral prostate and 28% reduction of the dorsal lateral prostate.
The following data illustrates the inhibiting effect of estryne and pregnyne on Δ^5 -3-ketosteroid isomerase (EC 5.3.3.1) as evidenced by a depression of the wet weight of the sex accessory tissue in the mature male rat treated with the estryne and pregnyne.
A. Male rats were used to assess the effect of estryne on endogenous androgen biosynthesis at varying doses (1-20 mg/kg body weight). […] On the eighth day the animals were sacrificed and the ventral prostate, dorsal lateral prostate, seminal vesicles, testes, kidneys, and adrenals were removed and weighed. Samples of each tissue were preserved in 10% buffered formalin for histological examination.
B. Male rats were treated with 19-norpregnyne by a regimen exactly as described for the estryne.

[5] = 20mg per kilo per day, i.p. in propylene glycol

C[C@]12CC[C@@H]3C(=O)CCC(=O)CC#CC[C@H]3[C@@H]1CCC2=O [Compound 1, 5,10-secoestr-5-yne-3,10,17-trione]
irreversible inhibition / inactivation of the enzyme ([1]; in words): rapid irreversible inhibition; also recorded: rapid irreversible and complete inactivation of the enzyme; also recorded: Powerful irreversible inhibition
half-life of enzyme inactivation ([1]; pH 7.0, 20-200 μM of the two inhibitors, in 1,4-dioxane): 2.5 to 22 min
kinact ([1]; pH 7, pseudo first order conditions, five inhibitor concentrations (10-fold range), read-out: k3, overall rate constant for the irreversible inhibition process): 0.00198 s⁻¹
pKi ([1]; pseudo first order conditions, five inhibitor concentrations (10-fold range), read-out: K1 (KI), inhibitor dissociation constant): 4.25
restoration of enzymatic activity by prolonged dialysis [2]: inability to restore enzymatic activity
inhibition of nuclear uptake of ^3H-dihydrotestosterone ([3]; 2 × 10^-6 M with ^3H-DHT 2 × 10^-9 M): approximately 50%
remaining activity at 2 µM ([3]; rat, 1 h, pH 7.4, steroid 2 × 10^-6 M with ^3H-DHT 2 × 10^-9 M, read-out: nuclear uptake of ^3H-DHT, % Control): 56%
CPM/100 DNA (nuclear uptake of ^3H-DHT) ([3]; steroid 2 × 10^-6 M with ^3H-DHT 2 × 10^-9 M, control 8,471): 4,771 CPM/100 DNA
reduction in weight of the dorsal lateral prostate [4, 5]: 25-30%
reduction in weight of the ventral prostate [4, 5]: 28%
reduction in weight of the ventral prostate ([4]; 20mg per kilo per day, i.p. in propylene glycol, listed as estryne): 25-30%
dose dependence of the effect on prostatic weight ([4]; 1-20 mg/kg, in words): dose dependent
effect on weight of the adrenal ([4]; in words): no effect
effect on weight of the kidney ([4]; in words): no effect
effect on weight of the seminal vesicles ([4]; in words): Only a modest decrease
effect on weight of the testes ([4]; in words): no effect
effect on wet weight of the dorsal-lateral prostate ([4]; in words): depresses the wet weight
effect on wet weight of the ventral prostate ([4]; in words): depresses the wet weight
Adrenal weight (± Sem) ([4]; estryne 1 mg/kg daily i.p.): 28 ± 2 mg
Dorsal Lateral Prostate weight (± Sem) ([4]; estryne 1 mg/kg daily i.p.): 212 ± 19 mg
Seminal Vesicles weight (± Sem) ([4]; estryne 1 mg/kg daily i.p.): 380 ± 18 mg
Ventral Prostate weight (± Sem) ([4]; estryne 1 mg/kg daily i.p.): 435 ± 23 mg
Kidney weight (± Sem) ([4]; estryne 1 mg/kg daily i.p.): 1320 ± 68 mg
Testis weight (± Sem) ([4]; estryne 1 mg/kg daily i.p.): 1650 ± 60 mg
Adrenal weight (± Sem) ([4]; estryne 5 mg/kg daily i.p.): 26 ± 2 mg
Dorsal Lateral Prostate weight (± Sem) ([4]; estryne 5 mg/kg daily i.p.): 195 ± 8 mg
Seminal Vesicles weight (± Sem) ([4]; estryne 5 mg/kg daily i.p.): 368 ± 16 mg
Ventral Prostate weight (± Sem) ([4]; estryne 5 mg/kg daily i.p.): 385 ± 8 mg
Kidney weight (± Sem) ([4]; estryne 5 mg/kg daily i.p.): 1090 ± 39 mg
Testis weight (± Sem) ([4]; estryne 5 mg/kg daily i.p.): 1590 ± 54 mg
Adrenal weight (± Sem) ([4]; estryne 10 mg/kg daily i.p.): 30 ± 2 mg
Dorsal Lateral Prostate weight (± Sem) ([4]; estryne 10 mg/kg daily i.p.): 188 ± 6 mg
Seminal Vesicles weight (± Sem) ([4]; estryne 10 mg/kg daily i.p.): 387 ± 14 mg
Ventral Prostate weight (± Sem) ([4]; estryne 10 mg/kg daily i.p.): 364 ± 25 mg
Kidney weight (± Sem) ([4]; estryne 10 mg/kg daily i.p.): 1150 ± 42 mg
Testis weight (± Sem) ([4]; estryne 10 mg/kg daily i.p.): 1580 ± 59 mg
Adrenal weight (± Sem) ([4]; estryne 20 mg/kg daily i.p.): 30 ± 3 mg
Dorsal Lateral Prostate weight (± Sem) ([4]; estryne 20 mg/kg daily i.p.): 177 ± 15 mg
Seminal Vesicles weight (± Sem) ([4]; estryne 20 mg/kg daily i.p.): 309 ± 23 mg
Ventral Prostate weight (± Sem) ([4]; estryne 20 mg/kg daily i.p.): 302 ± 28 mg
Kidney weight (± Sem) ([4]; estryne 20 mg/kg daily i.p.): 1040 ± 35 mg
Testis weight (± Sem) ([4]; estryne 20 mg/kg daily i.p.): 1420 ± 64 mg
